{"source": "patent US20110105623A1", "about": "(Biogenic Innovations, LLC, priority 2009, published 2011)", "key": {"[1]": {"tested_on": "Herpes Simplex Virus type 1 (ATCC #VR-260)", "type": "cell-based"}, "[2]": {"tested_on": "Lactobacillus acidophilus ATCC #4356", "assay": "Growth and recovery in simulated intestinal tract environment", "experimental": "The pH of the simulated intestinal fluid was 6.8. The microorganisms analyzed included Lactobacillus acidophilus ATCC #4356:\nFor the Lactobacillus acidophilus, bottled milk was used as the product. One milliliter of a 9 log solution of organism was placed into a 99 mL of bottled milk and mixed by hand shaking. […] The gastric acid was pre-warmed to 35° C. and kept at 35° C. for the duration of the 20 minutes. At the end of the 20 minute period, 10 mL of the simulated gastric acid, Lactobacillus acidophilus and milk mixture was placed into 90 mL of simulated intestinal fluid. The simulated intestinal fluid was pre-warmed to 35° C. and kept at 35° C. during the duration of the study."}}, "note": "Several values for one entry are separate records, joined by “and”; a condition that tells them apart may be missing. Identical values can stand only once. Like-named read-outs stand apart in the source and are kept apart here.", "data": [{"substance": "Methylsulfonylmethane [MSM]", "values": [{"measurement": "Average TCID50", "setting": "[1]", "result": "3.17log10 and 4.67log10 and 4.33log10 and 4.08log10 and 4.83log10 and 5.00log10 and 5.42log10"}, {"measurement": "CPE at dilution −8", "setting": "[1]", "result": "0000"}, {"measurement": "Response, % reduction", "setting": "[1]", "result": "78.620% and 99.320% and 99.790% and 87.980% and 93.240% and 98.800% and 97.860% and 61.980%"}, {"measurement": "average log10 reduction", "setting": "[1]; 1% MSM", "result": 0.67, "unit": "log10"}, {"measurement": "average percent reduction", "setting": "[1]; 1% MSM", "result": 78.62, "unit": "%"}, {"measurement": "average log10 reduction", "setting": "[1]; 2% MSM", "result": 0.84, "unit": "log10"}, {"measurement": "average percent reduction", "setting": "[1]; 2% MSM", "result": 85.55, "unit": "%"}, {"measurement": "average log10 reduction", "setting": "[1]; 3% MSM", "result": 1.00, "unit": "log10"}, {"measurement": "average percent reduction", "setting": "[1]; 3% MSM", "result": 90.00, "unit": "%"}, {"measurement": "average percent reduction", "setting": "[1]; 4% MSM", "result": 97.43, "unit": "%"}, {"measurement": "Response, % reduction", "setting": "[1]; Dose 5.312 mM (log dose 0.7252581)", "result": "32.390% and 61.980%"}, {"measurement": "Response, % reduction", "setting": "[1]; Dose 31.871 mM (log dose 1.503396)", "result": "96.200% and 93.240% and 61.980%"}, {"measurement": "Response, % reduction", "setting": "[1]; Dose 53.118 mM (log dose 1.725242)", "result": "87.980% and 93.240% and 98.800%"}, {"measurement": "HillSlope, best-fit value", "setting": "[1]; log(inhibitor) vs. normalized response, variable slope", "result": 1.523}, {"measurement": "LogIC50, best-fit value", "setting": "[1]; log(inhibitor) vs. normalized response, variable slope, dose in mM", "result": 1.006}, {"measurement": "Log Growth of Lactobacillus acidophilus", "setting": "[2]; 5.0% MSM, 20 min Gastric", "result": "<1.00", "unit": "logs"}, {"measurement": "Log Growth of Lactobacillus acidophilus", "setting": "[2]; 5.0% MSM, Hour 3, simulated intestinal fluid", "result": 1.62, "unit": "logs"}, {"measurement": "Log Growth of Lactobacillus acidophilus", "setting": "[2]; 5.0% MSM, Hour 8, simulated intestinal fluid", "result": 2.33, "unit": "logs"}, {"measurement": "Log Growth of Lactobacillus acidophilus", "setting": "[2]; 5.0% MSM, Hour 24, simulated intestinal fluid", "result": 6.39, "unit": "logs"}, {"measurement": "Log Growth of Lactobacillus acidophilus", "setting": "[2]; 5.0% MSM, Hour 30, simulated intestinal fluid", "result": 6.63, "unit": "logs"}, {"measurement": "Log Growth of Lactobacillus acidophilus", "setting": "[2]; 5.0% MSM, Hour 36, simulated intestinal fluid", "result": 8.65, "unit": "logs"}, {"measurement": "Log Growth of Lactobacillus acidophilus", "setting": "[2]; 5.0% MSM, Hour 48, simulated intestinal fluid", "result": 10.17, "unit": "logs"}, {"measurement": "Log Growth of Lactobacillus acidophilus", "setting": "[2]; 5.0% MSM, Hour 54, simulated intestinal fluid", "result": 13.33, "unit": "logs"}, {"measurement": "Log Growth of Lactobacillus acidophilus", "setting": "[2]; 5.0% MSM, Hour 60, simulated intestinal fluid", "result": 12.76, "unit": "logs"}, {"measurement": "Log Growth of Lactobacillus acidophilus", "setting": "[2]; 5.0% MSM, Hour 72, simulated intestinal fluid", "result": 12.78, "unit": "logs"}, {"measurement": "Log Growth of Lactobacillus acidophilus", "setting": "[2]; 5.0% MSM, Starting Inoculum", "result": 7.02, "unit": "logs"}, {"measurement": "log growth", "setting": "[2]; 5.0% MSM, hour 36", "result": 8.65, "unit": "logs"}, {"measurement": "increase in growth", "setting": "[2]; 5.0% MSM, period after hour 48", "result": 3.16, "unit": "logs"}, {"measurement": "Log Growth of Lactobacillus acidophilus", "setting": "[2]; […] MSM, 20 min Gastric", "result": "<1.00", "unit": "logs"}, {"measurement": "Log Growth of Lactobacillus acidophilus", "setting": "[2]; […] MSM, Starting Inoculum", "result": 6.86, "unit": "logs"}, {"measurement": "increase in growth", "setting": "[2]; […] MSM, hour 36 to 48", "result": 3.65, "unit": "logs"}]}]}
